The record followed here is patent US4675405A, “Quinoline compounds as antiallergic and antithrombotic agents” (American Home Products Corporation, priority 1986, dated 1987).

Experiment [1] relates to 5-HETE synthesis (lipoxygenase). Kind of experiment: inhibition of 5-HETE synthesis by rat glycogen-elicited polymorphonuclear leukocytes. Format: cell-based. As to conditions: for IC50: Leukocyte, rat PMN, A23187 + [14C]arachidonic acid, read-out: 50% Inhibitory Concentration (IC50) 5-HETE. Here is the method:
(§1) This is especially true with respect to 5,12-diHETE, which is also denoted as LTB4 [see Ford-Hitchinson, J. Roy. Soc. Med., 74, 831 (1981)]. The assay of this Example measures the ability of the compounds of the inventin to inhibit the synthesis of 5HETE and LTB4 by rat glycogen-elicited polymorphonuclear leukocytes.
(§2) Peritoneal PMN are obtained from female Wistar rats (150-250 g) that received an i.p. injection of 6% glycogen (10 ml). After 24 hours, rats are killed by CO2 asphyxiation and peritoneal cells are harvested by peritoneal lavage using Ca^++ and Mg^++ free Hanks' balanced salt solution (HBSS). The peritoneal exudate is centrifuged at 400 g for 10 minutes. After centrifugation, the lavaged fluid is removed and the cell pellet is resuspended in HBSS containing Ca^++ and Mg^++ and 10 mM L-cysteine at a concentration of 2×10^7 cells/ml. To 1 ml portions of cell suspension, test drugs or vehicle are added and incubated at 37° C. for 10 minutes. Following this preincubation, the calcium ionophore (10 μM), A23187, is added together with 0.5 μCi [^14 C] arachidonic acid and further incubated for 10 minutes. The reaction is stopped by the addition of ice cold water (3 ml) and acidifying to pH 3.5. Lipoxygenase products are then extracted twice into diethyl ether. The pooled ether extracts are evaporated to dryness under nitrogen and the residue is redissolved in a small volume of methanol and spotted on aluminum backed pre-coated thin layer chromatographic plates. The samples are them co-chromatographed with authentic reference 5-HETE, 12-HETE and 5,12-diHETE in the solvent system--hexane:ether:acetic acid (50:50:3). After chromatography, the areas associated with 5-HETE and 5,12-diHETE standards are identified by autoradiography, cut out and quantitated by liquid scintillation.
Results are expressed as % inhibition of [^14 C]5-HETE and [^14 C]LTB4 (5,12-HETE)synthesis. [formula]
Testing compounds of the invention in this assay and using the antioxident 3-amino-1-[m-(trifluoromethyl)phenyl]-2-pyrazoline (BW755C) as a standard, the following results are obtained.

The test system of experiment [2] is LTB4 synthesis (lipoxygenase). Description: inhibition of LTB4 (5,12-diHETE) synthesis by rat glycogen-elicited polymorphonuclear leukocytes. As to conditions: Leukocyte; rat PMN, A23187 + [14C]arachidonic acid; read-out: 50% Inhibitory Concentration (IC50) LTB4. Type of experiment: cell-based. The protocol: as §1
as §2, with “The reaction is stopped by the addition of ice cold water (3 ml) and acidifying to pH 3.5. Lipoxygenase products are then extracted twice into diethyl ether. The pooled ether extracts are evaporated to dryness under nitrogen and the residue is redissolved in a small volume of methanol and spotted on aluminum backed pre-coated thin layer chromatographic plates. The samples are them co-chromatographed with authentic reference 5-HETE, 12-HETE and 5,12-diHETE in the solvent system--hexane:ether:acetic acid (50:50:3).” left out
(§3) Results are expressed as % inhibition of [^14 C]5-HETE and [^14 C]LTB4 (5,12-HETE)synthesis. […]

The subject of experiment [3] is 5-HETE and LTB4 synthesis (lipoxygenase). Description: inhibition of synthesis of lipoxygenase products 5-HETE and LTB4 by rat PMN (product not separately stated). Format: cell-based. The protocol:
as §1
as §2, with “The reaction is stopped by the addition of ice cold water (3 ml) and acidifying to pH 3.5. Lipoxygenase products are then extracted twice into diethyl ether. The pooled ether extracts are evaporated to dryness under nitrogen and the residue is redissolved in a small volume of methanol and spotted on aluminum backed pre-coated thin layer chromatographic plates. The samples are them co-chromatographed with authentic reference 5-HETE, 12-HETE and 5,12-diHETE in the solvent system--hexane:ether:acetic acid (50:50:3).” left out
as §3

Experiment [4] has as its system TxB2 synthesis (cyclooxygenase). Description: inhibition of synthesis of the cyclooxygenase oxidation product TxB2 by rat PMN. Format: cell-based. Here is the method:
as §2
The procedure of Example 5 is also employed for the determination of the ability of the compounds of the invention to inhibit the synthesis of the arachidonic acid cyclooxygenase oxidation product TxB2.
In this assay, the procedure of Example 5 is carried out as described. However, in order to determine cyclooxygenase activity, the samples are cochromatographed with authentic reference TxB2 in the solvent system ethyl acetate:formic acid (80:1) and the upper phase of ethyl acetate:isoctane:acetic acid:water (110:50:20:100). After chromatography, the areas associated with TxB2 standard are identified by autoradiography, cut out and quantitated by liquid scintillation techniques.
The results are calculated as in Example 5.

The test system of experiment [5] is LTD4 induced bronchospasm. Kind of experiment: in vivo inhibition of LTD4 induced bronchospasm in guinea pigs. Set-up: species or system guinea pig. The following applies: for % Inhibition (Statistical Average), Overflow Volume at 1 min. / % Inhibition (Statistical Average), Overflow Volume at 3 min. / % Inhibition (Statistical Average), Overflow Volume at 5 min.: 10 minutes before LTD4. The protocol: The assay of this Example measures the in vivo ability of the compounds of the invention to inhibit the bronchospasm induced in guinea pigs by the exogenously administered leukotrienes C4 and/or D4. This assay is essentially a measure of the SRS-A antagonist properties of the compounds tested.
Male Hartley strain guinea pigs (350-600 g) are anesthetized with pentobarbital sodium (50 mg/kg, i.p.). The jugular vein is cannulated for injection of drugs and the carotid artery for monitoring blood pressure. The trachea is cannulated for artificial ventilation by a miniature Starling pump and for indirect measurement of respiratory volume changes as described infra. Additional pentobarbital sodium (15 mg/kg, i.v.) is administered to arrest spontaneous respiration. Submaximal bronchoconstrictor responses are established in control animals by varying the dose-levels of leukotriene. Intravenous dose-levels for LTC4 range from 1 to 2 μg/kg and for LTD4 the range is from 0.3 to 1 μg/kg. The aerosol bronchoprovocation dose for LTC4 is generated from 1.6 μM solution and for LTD4 from a 2.0 μM solution.
Test drugs are administered either intravenously, intragastrically, by aerosol or orally at 1 or 10 minutes before induction of bronchospasm by administration of either LTC4 or LTD4 at the predetermined dose-levels. Aerosols of soluble drugs or leukotrienes are produced in-line for 10 seconds only by actuation of an ultrasonic nebulizer (Monaghan). Aerosolized drug dosage is expressed in terms of solution concentration and by a fixed aerosol exposure time (approximately 10 seconds). Control animals receive saline in place of drug.
Respiratory volume changes are determined by a calibrated piston whose travel is recorded, via a linear transducer, on a Beckman Dynograph recorder. Maximal bronchoconstrictor volume is determined by clamping off the trachea at the end of the experiment. Overflow volumes at 1, 3 and 5 minutes are obtained from the recorded charts.
The overflow volume at 1, 3 and 5 minutes is expressed as a percentage of maximal bronchoconstriction. Combined group values are used from each of these time intervals to determine the inhibitory effect of drugs. [formula] Students t-test for unpaired data is used to determine statistical significance. Dose reponse curves are generated and ED50 doses are interpolated from the regression lines.
Results for compounds of the invention in this assay, using LTD4 for induction of bronchospasm, are given below:
Two other compounds of this invention are tested in this assay and the results are expressed based on the following calculations which employ the values obtained for the overflow volumes at 1, 3 and 5 minutes:
Area under the volume overflow curve (AUC) is estimated, using the overflow values at 1, 3 and 5 minutes, and expressed as a percentage of the maximal overflow AUC (equation 1): [formula] Drug effects are reported as percent inhibition of % max AUC values obtained from appropriate control animals (equation 2): [formula]
Student's t-test for unpaired data is used to determine statistical significance (p<0.05). IC50 values can also be determined by inverse prediction from linear regression lines through points between 10 and 90% inhibition.

For experiment [6], the system named is ovalbumin induced bronchospasm. Description: in vivo inhibition of ovalbumin induced bronchospasm mediated by endogenous mediators in sensitized guinea pigs. The following applies: 10 minutes before i.v. ovalbumin challenge. Set-up: species or system guinea pig. The protocol: The assay of this Example measures the in vivo ability of the compounds of the invention to inhibit the bronchospasm induced in guinea pigs by endogenous mediators of the bronchoconstriction.
Male Hartley strain guinea pigs weighing 250-350 g are sensitized to chicken ovalbumin (OA) (10 mg i.p.) on days 1 and 3 and used starting on day 26. The animals are anesthetized with pentobarbital sodium (50 mg/kg, i.p.), bilateral vagotomy is performed, and the jugular vein is cannulated for injection of drugs and the carotid artery for monitoring blood pressure. The trachea is cannulated for artificial ventilation by miniature Starling pump and for indirect measurement of respiratory volume changes as described, infra. Succinylcholine (2 mg/kg, i.v.) is administered to arrest spontaneous respiration. […]
Respiratory volume changes are determined by a calibrated piston whose travel is recorded, via a linear transducer, on a Beckman Dynograph recorder. Maximal bronchoconstrictor volume is determined by clamping off the trachea at the end of the experiment. Overflow volumes at minutes 1, 3 and 5 are obtained from the recorded charts.
Area under the volume overflow curve (AUC) is estimated, using the overflow values at 1, 3 and 5 minutes, and expressed as a percentage of the maximal overflow AUC (equation 1): [formula] […]

With `NC1=NN(c2cccc(C(F)(F)F)c2)CC1` [BW755C, 3-amino-1-[m-(trifluoromethyl)phenyl]-2-pyrazoline, reference compound], the IC50 in experiment [1] was determined as 43 µM; in experiment [2], 30 µM.

For the compound `CCS(=O)(=O)Nc1cccc(OCc2cc3ccccc3s2)c1` [Example 2D, N-[3-[(2-Benzo[b]thienyl)methoxy]phenyl]ethane sulfonamide], the “>50% Inhibitory at 50 μm” value in experiment [3] was “+ (inhibition of >50%)”. The “50% Inhibition at 50 μm (TxB2 synthesis)” value in experiment [4] is “+ (inhibition of >50%)”. The “% Inhibition of Max AUC” value in experiment [5] (50 mg/kg intraduodenal, 10 minutes before induction of bronchospasm) is listed as 13%.

With `CCCS(=O)(=O)Nc1cccc(OCc2cc3ccccc3s2)c1` [Example 2E, N-[3-[(2-Benzo[b]thienyl]methoxy]phenyl]-1-propane sulfonamide], the “>50% Inhibitory at 50 μm” value in experiment [3] is given as “+ (inhibition of >50%)”. The “50% Inhibition at 50 μm (TxB2 synthesis)” value in experiment [4] is on record as “+ (inhibition of >50%)”.

As for `O=S(=O)(Nc1cccc(OCc2ccc3ccccc3n2)c1)C(F)(F)F` [Example 3, N-[3-[(2-Quinolinyl)methoxy]phenyl]trifluoromethane sulfonamide], the “% Inhibition” value in experiment [5] (25 mg/kg administered intragastrically) came out at 98%; in experiment [6] (25 mg/kg intragastric) it was 97%. In addition, the ED50 in experiment [5] (Cavia porcellus, po, administered intragastrically, LTD4 induced bronchospasm, read-out: IC50 (the source's name)) was 0.1 mg/kg; in experiment [6] (Cavia porcellus, 10 min, intragastric, read-out: IC50 (the source's name)), 0.6 mg/kg.

Take `CCS(=O)(=O)Nc1cccc(OCc2ccc3ccccc3c2)c1` [Example 2C, N-[3-[(2-Naphthalenyl)methoxy]phenyl]ethane sulfonamide]: in experiment [5] (50 mg/kg intraduodenal), the “% Inhibition (Statistical Average), Overflow Volume at 1 min.” value (shortened to “% Inhibition … at 1 min.”) amounted to 61%; the “% Inhibition (Statistical Average), Overflow Volume at 3 min.” value (“% Inhibition … at 3 min.” below) worked out at 41%; the “% Inhibition (Statistical Average), Overflow Volume at 5 min.” value (from here on “% Inhibition … at 5 min.”) is given as 53%.

Take `CCCCS(=O)(=O)Nc1cccc(OCc2ccc3ccccc3n2)c1` [Example 2B, N-[3-[(2-Quinolinyl)methoxy]phenyl]-1-butane sulfonamide]: the IC50 in experiment [1] came to 1.6 µM. In experiment [2], the IC50 came out at 2.1 µM. For the same compound, the “% Inhibition at 100 μm (TxB2 synthesis)” value in experiment [4] worked out at 73%. Further, in experiment [5] (50 mg/kg intraduodenal), the “% Inhibition … at 1 min.” value was 08%; the “% Inhibition … at 3 min.” value was 41%; the “% Inhibition … at 5 min.” value is given as 41%.

As to `CCS(=O)(=O)Nc1cccc(OCc2ccc3ccccc3n2)c1` [Example 2A, N-[3-[(2-Quinolinyl)methoxy]phenyl]ethane sulfonamide], the “% Inhibition at 100 μm (first value, 5-HETE by column order)” value in experiment [1] (100 μm) is recorded as 93%. Moreover, the “% Inhibition at 100 μm (TxB2 synthesis)” value in experiment [4] turned out to be 56%. Moreover, in experiment [5] (50 mg/kg intraduodenal), the “% Inhibition … at 1 min.” value worked out at 88%; the “% Inhibition … at 3 min.” value was 86%; the “% Inhibition … at 5 min.” value came out at 81%.
